# Test results: ChEMBL document CHEMBL3045481, “Insecticide-induced resurgence of the whitebacked planthopper Sogatella furcifera (Horvath) (Hemiptera: Delphacidae) on rice varieties with different levels of resistance” (Crop Prot, 2011)
# How the values were obtained:
# Assay type in all cases: ADME, organism-based
# Settings in all cases: in vivo
# [1] = tested on: Oryza sativa; assay: Effect on total phenols level in Sogatella furcifera-sensitive Oryza sativa (rice) plant ARC6248 leaf sheath measured per gram of dry weight at 0.0035% concentration (reference value: 12.75 mg/g dry wt)
# [2] = tested on: Oryza sativa; assay: Effect on total sugar level in Sogatella furcifera-resistanct Oryza sativa (rice) plant PR116 leaf blade measured per gram of dry weight at 0.0018% concentration (reference value: 36.16 mg/g dry wt)
# [3] = tested on: Oryza sativa; assay: Effect on total sugar level in Sogatella furcifera-resistanct Oryza sativa (rice) plant PR116 leaf sheath measured per gram of dry weight at 0.0035% concentration (reference value: 30.27 mg/g dry wt)
# [4] = tested on: Oryza sativa; assay: Effect on total protein level in Sogatella furcifera-sensitive Oryza sativa (rice) plant ARC6248 leaf blade measured per gram of dry weight at 0.0035% concentration (reference value: 17.67 mg/g fresh wt)
# [5] = tested on: Oryza sativa; assay: Effect on total amino acids level in Sogatella furcifera-sensitive Oryza sativa (rice) plant ARC6248 leaf sheath measured per gram of dry weight at 0.0018% concentration (reference value: 2.11 mg/g fresh wt)
# [6] = tested on: Oryza sativa; assay: Effect on total amino acids level in Sogatella furcifera-sensitive Oryza sativa (rice) plant ARC6248 leaf sheath measured per gram of dry weight at 0.0035% concentration (reference value: 2.11 mg/g fresh wt)
# [7] = tested on: Oryza sativa; assay: Effect on total sugar level in Sogatella furcifera-resistanct Oryza sativa (rice) plant PR116 leaf blade measured per gram of dry weight at 0.0035% concentration (reference value: 36.16 mg/g dry wt)
# [8] = tested on: Oryza sativa; assay: Effect on reducing sugar level in Sogatella furcifera-sensitive Oryza sativa (rice) plant ARC6248 leaf sheath measured per gram of dry weight at 0.0018% concentration (reference value: 6.41 mg/g dry wt)
# [9] = tested on: Oryza sativa; assay: Effect on total phenols level in Sogatella furcifera-resistanct Oryza sativa (rice) plant PR116 leaf blade measured per gram of dry weight at 0.0018% concentration (reference value: 8.08 mg/g dry wt)
# [10] = tested on: Oryza sativa; assay: Effect on total amino acids level in Sogatella furcifera-resistanct Oryza sativa (rice) plant PR116 leaf blade measured per gram of dry weight at 0.0018% concentration (reference value: 3.91 mg/g […])
# [11] = tested on: Oryza sativa; assay: Effect on total amino acids level in Sogatella furcifera-resistanct Oryza sativa (rice) plant PR116 leaf sheath measured per gram of dry weight at 0.0018% concentration (reference value: 2.58 mg/g […])
# [12] = tested on: Oryza sativa; assay: Effect on reducing sugar level in Sogatella furcifera-sensitive Oryza sativa (rice) plant ARC6248 leaf blade measured per gram of dry weight at 0.0035% concentration (reference value: 8.37 mg/g dry wt)
# [13] = tested on: Oryza sativa; assay: Effect on total amino acids level in Sogatella furcifera-sensitive Oryza sativa (rice) plant ARC6248 leaf blade measured per gram of dry weight at 0.0018% concentration (reference value: 3.54 mg/g fresh wt)
# [14] = tested on: Oryza sativa; assay: Effect on total amino acids level in Sogatella furcifera-resistanct Oryza sativa (rice) plant PR116 leaf blade measured per gram of dry weight at 0.0035% concentration (reference value: 3.91 mg/g […])
# [15] = tested on: Oryza sativa; assay: Effect on total phenols level in Sogatella furcifera-sensitive Oryza sativa (rice) plant ARC6248 leaf blade measured per gram of dry weight at 0.0035% concentration (reference value: 17.08 mg/g dry wt)
# [16] = tested on: Oryza sativa; assay: Effect on total protein level in Sogatella furcifera-sensitive Oryza sativa (rice) plant ARC6248 leaf sheath measured per gram of dry weight at 0.0035% concentration (reference value: 6.11 mg/g […])
# [17] = tested on: Oryza sativa; assay: Effect on reducing sugar level in Sogatella furcifera-resistanct Oryza sativa (rice) plant PR116 leaf blade measured per gram of dry weight at 0.0035% concentration (reference value: 9.35 mg/g dry wt)
# [18] = tested on: Oryza sativa; assay: Effect on total sugar level in Sogatella furcifera-resistanct Oryza sativa (rice) plant PR116 leaf sheath measured per gram of dry weight at 0.0018% concentration (reference value: 30.27 mg/g dry wt)
# [19] = tested on: Oryza sativa; assay: Effect on reducing sugar level in Sogatella furcifera-resistanct Oryza sativa (rice) plant PR116 leaf blade measured per gram of dry weight at 0.0018% concentration (reference value: 9.35 mg/g dry wt)
# [20] = tested on: Oryza sativa; assay: Effect on total protein level in Sogatella furcifera-resistanct Oryza sativa (rice) plant PR116 leaf blade measured per gram of dry weight at 0.0018% concentration (reference value: 21.67 mg/g fresh wt)
# [21] = tested on: Oryza sativa; assay: Effect on total sugar level in Sogatella furcifera-sensitive Oryza sativa (rice) plant ARC6248 leaf sheath measured per gram of dry weight at 0.0018% concentration (reference value: 25.98 mg/g dry wt)
# [22] = tested on: Oryza sativa; assay: Effect on total protein level in Sogatella furcifera-sensitive Oryza sativa (rice) plant ARC6248 leaf sheath measured per gram of dry weight at 0.0018% concentration (reference value: 6.11 mg/g […])
# [23] = tested on: Oryza sativa; assay: Effect on total sugar level in Sogatella furcifera-sensitive Oryza sativa (rice) plant ARC6248 leaf sheath measured per gram of dry weight at 0.0035% concentration (reference value: 25.98 mg/g dry wt)
# [24] = tested on: Oryza sativa; assay: Effect on total protein level in Sogatella furcifera-resistanct Oryza sativa (rice) plant PR116 leaf sheath measured per gram of dry weight at 0.0018% concentration (reference value: 7.06 mg/g fresh wt)
# [25] = tested on: Oryza sativa; assay: Effect on total sugar level in Sogatella furcifera-sensitive Oryza sativa (rice) plant ARC6248 leaf blade measured per gram of dry weight at 0.0018% concentration (reference value: 34.05 mg/g dry wt)
# [26] = tested on: Oryza sativa; assay: Effect on total sugar level in Sogatella furcifera-sensitive Oryza sativa (rice) plant ARC6248 leaf blade measured per gram of dry weight at 0.0035% concentration (reference value: 34.05 mg/g dry wt)
# [27] = tested on: Oryza sativa; assay: Effect on total amino acids level in Sogatella furcifera-sensitive Oryza sativa (rice) plant ARC6248 leaf blade measured per gram of dry weight at 0.0035% concentration (reference value: 3.54 mg/g fresh wt)
# [28] = tested on: Oryza sativa; assay: Effect on total phenols level in Sogatella furcifera-sensitive Oryza sativa (rice) plant ARC6248 leaf sheath measured per gram of dry weight at 0.0018% concentration (reference value: 12.75 mg/g dry wt)
# [29] = tested on: Oryza sativa; assay: Effect on reducing sugar level in Sogatella furcifera-resistanct Oryza sativa (rice) plant PR116 leaf sheath measured per gram of dry weight at 0.0018% concentration (reference value: 7.50 mg/g dry wt)
# [30] = tested on: Oryza sativa; assay: Effect on total phenols level in Sogatella furcifera-sensitive Oryza sativa (rice) plant ARC6248 leaf blade measured per gram of dry weight at 0.0018% concentration (reference value: 17.08 mg/g dry wt)
# [31] = tested on: Oryza sativa; assay: Effect on total phenols level in Sogatella furcifera-resistanct Oryza sativa (rice) plant PR116 leaf blade measured per gram of dry weight at 0.0035% concentration (reference value: 8.08 mg/g dry wt)
# [32] = tested on: Oryza sativa; assay: Effect on reducing sugar level in Sogatella furcifera-sensitive Oryza sativa (rice) plant ARC6248 leaf sheath measured per gram of dry weight at 0.0035% concentration (reference value: 6.41 mg/g dry wt)
# [33] = tested on: Oryza sativa; assay: Effect on total protein level in Sogatella furcifera-resistanct Oryza sativa (rice) plant PR116 leaf sheath measured per gram of dry weight at 0.0035% concentration (reference value: 7.06 mg/g fresh wt)
# [34] = tested on: Oryza sativa; assay: Effect on total phenols level in Sogatella furcifera-resistanct Oryza sativa (rice) plant PR116 leaf sheath measured per gram of dry weight at 0.0018% concentration (reference value: 5.75 mg/g dry wt)
# [35] = tested on: Oryza sativa; assay: Effect on total protein level in Sogatella furcifera-sensitive Oryza sativa (rice) plant ARC6248 leaf blade measured per gram of dry weight at 0.0018% concentration (reference value: 17.67 mg/g fresh wt)
# [36] = tested on: Oryza sativa; assay: Effect on reducing sugar level in Sogatella furcifera-resistanct Oryza sativa (rice) plant PR116 leaf sheath measured per gram of dry weight at 0.0035% concentration (reference value: 7.50 mg/g dry wt)
# [37] = tested on: Oryza sativa; assay: Effect on reducing sugar level in Sogatella furcifera-sensitive Oryza sativa (rice) plant ARC6248 leaf blade measured per gram of dry weight at 0.0018% concentration (reference value: 8.37 mg/g dry wt)
# [38] = tested on: Oryza sativa; assay: Effect on total protein level in Sogatella furcifera-resistanct Oryza sativa (rice) plant PR116 leaf blade measured per gram of dry weight at 0.0035% concentration (reference value: 21.67 mg/g fresh wt)
# [39] = tested on: Oryza sativa; assay: Effect on total amino acids level in Sogatella furcifera-resistanct Oryza sativa (rice) plant PR116 leaf sheath measured per gram of dry weight at 0.0035% concentration (reference value: 2.58 mg/g […])
# [40] = tested on: Oryza sativa; assay: Effect on total phenols level in Sogatella furcifera-resistanct Oryza sativa (rice) plant PR116 leaf sheath measured per gram of dry weight at 0.0035% concentration (reference value: 5.75 mg/g dry wt)
smiles,measurement,setting,value
O=[N+]([O-])NC1=NCCN1Cc1ccc(Cl)nc1 [IMIDACLOPRID],Activity,[1],14.08 mg
same,Activity,[2],40.98 mg
same,Activity,[3],32.41 mg
same,Activity,[4],17.78 mg
same,Activity,[5],2.02 mg
same,Activity,[6],2.48 mg
same,Activity,[7],39.91 mg
same,Activity,[8],7.28 mg
same,Activity,[9],8.08 mg
same,Activity,[10],3.73 mg
same,Activity,[11],2.4 mg
same,Activity,[12],8.8 mg
same,Activity,[13],3.21 mg
same,Activity,[14],4.27 mg
same,Activity,[15],18 mg
same,Activity,[16],5.56 mg
same,Activity,[17],11.85 mg
same,Activity,[18],31.34 mg
same,Activity,[19],12.72 mg
same,Activity,[20],18.89 mg
same,Activity,[21],34.55 mg
same,Activity,[22],5.56 mg
same,Activity,[23],30.27 mg
same,Activity,[24],6.06 mg
same,Activity,[25],40.45 mg
same,Activity,[26],37 mg
same,Activity,[27],3.73 mg
same,Activity,[28],14.75 mg
same,Activity,[29],8.8 mg
same,Activity,[30],17.67 mg
same,Activity,[31],8 mg
same,Activity,[32],6.63 mg
same,Activity,[33],6.67 mg
same,Activity,[34],6.17 mg
same,Activity,[35],15.11 mg
same,Activity,[36],8.81 mg
same,Activity,[37],9.67 mg
same,Activity,[38],21.11 mg
same,Activity,[39],2.68 mg
same,Activity,[40],6.67 mg
